This note sets out measurements from ChEMBL document CHEMBL5365413, “Optimizing metabolic stability of phosphodiesterase 5 inhibitors: Discovery of a potent N-(pyridin-3-ylmethyl)quinoline derivative targeting synaptic plasticity” (Bioorg Med Chem Lett, 2023).

Data set [1] deals with cGMP-specific 3',5'-cyclic phosphodiesterase (Homo sapiens, UniProt O76074). Briefly: Inhibition of human recombinant PDE5A1 by fluorescence based assay.
Data set [2] is described as follows: Metabolic stability in human liver microsomes assessed as intrinsic clearance. Type of data set: ADME, Microsome. Background: Microsomes from liver hold many membrane-bound enzymes, among them those of drug oxidation.
Data set [3] is described as follows: Metabolic stability in human liver microsomes assessed as half life. Format: ADME, Microsome.
Data set [4] is described as follows: Inhibition of PDE9 (unknown origin) by fluorescent based assay. Further details: species or system Homo sapiens.
Data set [5] in a line: Inhibition of PDE1 (unknown origin) by fluorescent based assay. Further details: species or system Homo sapiens.
Data set [6] is described as follows: Selectivity index, ratio of IC50 for inhibition of PDE7 (unknown origin) to IC50 for inhibition of human recombinant PDE5A1.
Data set [7] can be described thus: Inhibition of PDE6 (unknown origin) by fluorescent based assay. Further details: species or system Homo sapiens.
The test system of data set [8] is Hippocampus. Briefly: Neuroprotective activity against mouse hippocampus tissue assessed as restoration of synaptic plasticity by measuring residual potentiation at 50 nM for 10 min followed by tetanus stimulation and measured for 2 hrs by electrophysiology analysis relative to control. To be noted: time 130.0 min. Type of data set: functional, tissue-based.
Data set [9] concerns Hippocampus. Briefly: Neuroprotective activity against o-Tau perfused mouse hippocampus tissue assessed as restoration of synaptic plasticity by measuring hippocampal […] at 50 nM for 10 min followed by tetanus stimulation and measured for 2 hrs by electrophysiology analysis. Format: functional, tissue-based. To be noted: time 130.0 min.
A short description of data set [10]: Inhibition of PDE2 (unknown origin) by fluorescent based assay. Further details: species or system Homo sapiens.
The nature of data set [11]: Inhibition of PDE10 (unknown origin) by fluorescent based assay. Further details: species or system Homo sapiens.
Data set [12] in a line: Selectivity index, ratio of IC50 for inhibition of PDE2 (unknown origin) to IC50 for inhibition of human recombinant PDE5A1.
Another data set concerns the target Phosphodiesterase 7 (Homo sapiens, UniProt Q13946+Q9NP56). Briefly: Inhibition of PDE7 (unknown origin) by fluorescent based assay. Type of data set: protein assay.
Data set [13] in a line: Selectivity index, ratio of IC50 for inhibition of PDE3 (unknown origin) to IC50 for inhibition of human recombinant PDE5A1.
Data set [14] is described as follows: Selectivity index, ratio of IC50 for inhibition of PDE1 (unknown origin) to IC50 for inhibition of human recombinant PDE5A1.
Data set [15] in a line: Selectivity index, ratio of IC50 for inhibition of PDE6 (unknown origin) to IC50 for inhibition of human recombinant PDE5A1.
Data set [16] relates to Hippocampus. Briefly: Neuroprotective activity against o-Tau perfused mouse hippocampus tissue assessed as restoration of synaptic plasticity by measuring residual potentiation at 50 nM for 10 min followed by tetanus stimulation and measured for 2 hrs by electrophysiology analysis relative to control. To be noted: time 130.0 min. Type of data set: functional, tissue-based.

Data set [17] in a line: Selectivity index, ratio of IC50 for inhibition of PDE10 (unknown origin) to IC50 for inhibition of human recombinant PDE5A1.
A short description of data set [18]: Inhibition of PDE11 (unknown origin) by fluorescent enzymatic assay. Further details: species or system Homo sapiens.
Data set [19] is described as follows: Selectivity index, ratio of IC50 for inhibition of PDE8 (unknown origin) to IC50 for inhibition of human recombinant PDE5A1.
Data set [20] can be described thus: Selectivity index, ratio of IC50 for inhibition of PDE9 (unknown origin) to IC50 for inhibition of human recombinant PDE5A1.
A short description of data set [21]: Inhibition of PDE3 (unknown origin) by fluorescent based assay. Further details: species or system Homo sapiens.
Data set [22] in a line: Selectivity index, ratio of IC50 for inhibition of PDE11 (unknown origin) to IC50 for inhibition of human recombinant PDE5A1.
The target of another data set is Phosphodiesterase 4 (Homo sapiens, UniProt P27815+Q08499+Q07343+Q08493). Briefly: Inhibition of PDE4 (unknown origin) by fluorescent based assay. Format: protein assay.
A short description of data set [23]: Selectivity index, ratio of IC50 for inhibition of PDE4 (unknown origin) to IC50 for inhibition of human recombinant PDE5A1.
Data set [24] in a line: Inhibition of PDE8 (unknown origin) by fluorescent based assay. Further details: species or system Homo sapiens.

The source made the active and inactive calls. The rule behind the calls is not given here. Bounds are passed on as bounds.

`COc1cc(CNc2c(CO)cnc3c(C4CC4)cc(C#N)cc23)cc(OC)c1OC`: the IC50 – broadly, the concentration that inhibits the measured activity by half – in [1] was found to be 3400 nM.
As to `N#Cc1cc(C2CC2)c2ncc(CO)c(NCc3ccc4c(c3)OCO4)c2c1`, in data set [1], the IC50 was determined as 190 nM. Further, in [2], the CLH turned out to be 88 µL/min/mg. Further, in data set [3], the t1/2 was found to be 15.7 min.
In the case of `Cn1ccc2cc(CNc3c(CO)cnc4c(C5CC5)cc(C#N)cc34)ccc21`, the IC50 in data set [1] worked out at 2800 nM.
With `COc1cc(CNc2c(CO)cnc3c(C4CC4)cc(C#N)cc23)ccn1`, the IC50 in data set [1] turned out to be 180 nM. In addition, in data set [2], the CLH worked out at 48 µL/min/mg. The t1/2 in data set [3] amounted to 28.8 min.
With `N#Cc1cc(C2CC2)c2ncc(CO)c(NCc3ccnc(Cl)c3)c2c1`, the IC50 in data set [1] was found to be 820 nM. Moreover, in [2], the CLH came out at 80 µL/min/mg. Besides, in data set [3], the t1/2 was 17.3 min.
Consider `COc1ccc(CNc2c(CO)cnc3c(C4CC4)cc(C#N)cc23)cn1`, for which the CLH in data set [2] amounted to 31 µL/min/mg. The IC50 is > 10000 nM in data set [4] (read-out: IC50); > 10000 nM in [5] (read-out: IC50); 260 nM in data set [7]; 180 nM in data set [10]; > 10000 nM in [11] (read-out: IC50); > 10000 nM against Phosphodiesterase 7. In addition, the IC50 (in data set [18] (read-out: IC50); in data set [21] (read-out: IC50); against Phosphodiesterase 4; in data set [24] (read-out: IC50)) was > 10000 nM each time. In addition, the Ratio IC50 in [6] was > 500; in [12] it was 9; in [13], > 500; in data set [14], > 500; in [15] it was 13; in data set [17], > 500. Also, the Ratio IC50 in data set [19], in data set [20], in [22] and in data set [23] was > 500 each time. In the data set with Hippocampus [8], the outcome was inactive. The outcome with Hippocampus [9] and with Hippocampus [16] was Active. Also, the t1/2 in data set [3] came out at 44.6 min.
With `COc1ccc(CNc2c(CO)cnc3c(C4CC4)cc(C#N)cc23)cc1Cl`, the CLH in [2] turned out to be 80 µL/min/mg. Moreover, the t1/2 in [3] is recorded as 20.5 min.
`[2H]C([2H])(Nc1c(CO)cnc2c(C3CC3)cc(C#N)cc12)c1ccc(OC)c(Cl)c1`: in data set [1], the IC50 is 5 nM. For the same compound, the CLH in data set [2] was determined as 85 µL/min/mg. Moreover, in [3], the t1/2 is 16.4 min.
For the compound `CCOC(=O)c1cnc2c(C3CC3)cc(C#N)cc2c1NCc1ccc(OC)nc1`, the IC50 in data set [1] was 1300 nM.
As to `COc1ncc(CNc2c(CO)cnc3c(C4CC4)cc(C#N)cc23)cc1Cl`, the IC50 is 30 nM in [1]; “Not Active” in [4]; “Not Active” in data set [5]; 58 nM in data set [7]; > 10000 nM in data set [10]; “Not Active” in data set [11]. Further, the half-maximal inhibitory concentration (IC50) result in [18], in data set [21] and in data set [24] was “Not Active” in each case. In addition, the CLH in data set [2] stood at 72 µL/min/mg. Further, the Ratio IC50 in [15] came to 1.9. In data set [3], the t1/2 was 19.5 min.
